Test results from US20040248806A1, “Compounds comprising an analgesic molecule linked to a vector that can vectorise said molecule through the hematoencephalic barrier and pharmaceutical compositions containing same” (priority 2001, published 2004).
Read-outs that look alike come from different tables or passages of the source. Non-standard residues stand in square brackets, D forms with d. Residues, ends and D or L forms follow the SMILES beside them. *: point of attachment. X1 = CN1CC[C@]23c4c5ccc(O)c4O[C@H]2[C@@H](O[C@@H]2O[C@H](C(=O)NCCS*)[C@@H](O)[C@H](O)[C@H]2O)C=C[C@H]3[C@H]1C5; Mpa = O=C(O)CCS

What was measured:
[1] = Respiratory depression (blood O2 saturation); type: in vivo, rat; details: rats, subcutaneous; for effect on oxygen saturation (FIG. 5, B and C) / oxygen level (SO2): 5×ED50 and 10×ED50 doses; for oxygen level (SO2): between 30 and 90 min; for effect on O2 saturation (FIG. 5, A): ED50 dose
Procedure: The respiratory depression was calculated in rats. The product is injected into the animals subcutaneously and, after a certain amount of time, an aliquot of blood is taken from the femoral artery via a catheter implanted beforehand. During the study, the animals are placed in a calm place. After the blood sample has been taken, the oxygen saturation (SO2) and the CO2 pressure (PCO2) are measured. The SO2 values are measured in % O2.

Tail flick test = type: in vivo, mouse; details: mice; for ED50: dose giving analgesic effect in 50% of the mice
Procedure: II.2. Assay Used: Tail Flick Test
a) Experimental Conditions
The mouse tail is placed in front of an infrared source. The light is focused on the ventral surface of the tail so as to produce a surface temperature of 55° C. As soon as the mouse moves the tail, the reaction time is then measured. The compounds studied are administered subcutaneously.
Three measurements are taken before administration of the product so as to have a baseline time. The percentage of mice in which analgesia has occurred is then represented by the number of mice having a reaction time which is at least double the baseline time divided by the total number of mice. The ED50 dose represents the concentration which gives 50% of mice in which analgesia has occurred.
[…]. We determined the ED50, which represents the dose which gives an analgesic effect in 50% of the mice in the “tail flick” model, for each product. […].

μ1 receptor = test: Receptor affinity, [3H]DADLE binding in calf thalamus homogenate; details: [3H]DADLE 0.7 nM with 10 nM DPDPE
Procedure: (§1) Tissue homogenates are prepared from calf brains (thalamus for μ1 and μ2 and frontal cortex for delta). [^3H][D-Ala^2,D-Leu^5]enkephalin (DADLE) (0.7 nM) is incubated with 3 ml of tissue homogenate (15 mg of tissue per ml) in the presence of 10 nM of [D-Pen^2,D-Pen^5]enkephalin (DPDPE) and of increasing concentrations of free or vectorized M6G. Under these conditions, specific binding to μ1 binding sites is observed. For the μ2 receptor, [D-Ala^2, MePhe^4,Gly(ol)^5]enkephalin (DAMGO) (1 nM) is incubated with 3 ml of tissue homogenate in the presence of 5 nM [D-Ser2,Leu^5]enkephalin-Thr^6 (DSLET) and of increasing concentrations of free or vectorized M6G. For the delta receptor, the tissue is incubated with [^3H] [D-Pen^2,D-Pen^5]enkephalin in the presence of free or vectorized M6G. The nonspecific binding is determined by adding to the labeled ligands 1 μM of levallorphan.

delta receptor = target: T1, delta receptor (Bos taurus, UniProt F1N083); test: Receptor affinity, [3H]DPDPE binding in calf frontal cortex homogenate
T1 construct: Tissue homogenates are prepared from calf brains; from tissue; host or cells: calf brain frontal cortex homogenate
T1 sequence (F1N083 1-372): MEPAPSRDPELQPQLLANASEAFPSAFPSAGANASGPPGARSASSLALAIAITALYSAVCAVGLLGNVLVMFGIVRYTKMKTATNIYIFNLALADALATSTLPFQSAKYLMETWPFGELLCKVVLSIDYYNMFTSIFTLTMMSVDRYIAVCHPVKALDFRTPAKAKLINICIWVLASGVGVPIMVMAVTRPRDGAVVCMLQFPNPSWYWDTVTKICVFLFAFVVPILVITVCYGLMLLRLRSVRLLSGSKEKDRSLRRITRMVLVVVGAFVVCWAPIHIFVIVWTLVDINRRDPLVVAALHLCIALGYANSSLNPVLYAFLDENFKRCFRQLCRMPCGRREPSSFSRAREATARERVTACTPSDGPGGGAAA
Procedure: as §1

[2] = systemic injection; cited from earlier work
μ2 receptor = target: T2, μ2 receptor (Bos taurus, UniProt P79350); test: Receptor affinity, DAMGO binding in calf thalamus homogenate; details: DAMGO 1 nM with 5 nM DSLET
T2 construct: Tissue homogenates are prepared from calf brains; from tissue; host or cells: calf brain thalamus homogenate
T2 sequence (P79350 whole entry): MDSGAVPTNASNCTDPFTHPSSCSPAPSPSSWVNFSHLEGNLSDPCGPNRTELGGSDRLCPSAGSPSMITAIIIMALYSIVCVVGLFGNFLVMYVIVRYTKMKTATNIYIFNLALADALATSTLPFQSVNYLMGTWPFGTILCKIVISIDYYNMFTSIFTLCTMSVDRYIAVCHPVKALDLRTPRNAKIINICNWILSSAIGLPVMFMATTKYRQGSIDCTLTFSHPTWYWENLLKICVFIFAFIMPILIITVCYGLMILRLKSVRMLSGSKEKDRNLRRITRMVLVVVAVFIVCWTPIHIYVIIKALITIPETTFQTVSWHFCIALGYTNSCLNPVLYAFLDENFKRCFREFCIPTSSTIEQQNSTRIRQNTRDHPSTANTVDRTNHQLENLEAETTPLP
Procedure: as §1

[3] = In situ brain perfusion (penetration through the BBB); type: in vivo; details: mouse, perfusion of 60 seconds in buffer
Description: a) Experimental Conditions: In Situ Brain Perfusion
Mice (20-25 g, Iffa-Credo; l'Arbresle, France) are anesthetized. After exposure of the common carotid, the right external carotid artery is ligated at the level of the bifurcation with the internal carotid, and the common carotid is ligated between the heart and the site of the implantation of the catheter (polyethylene catheter, ID: 0.76). Said catheter, pre-filled with a heparin solution (100 units/ml) is inserted into the common carotid. The mice are perfused with a perfusion buffer (128 mM NaCl, 24 mM NaHCO3, 4.2 mM KCl, 2.4 mM NaH2PO4, 1.5 mM CaCl2, 0.9 mM MgSO4 and 9 mM D-glucose). This buffer is filtered and then a mixture containing 95% O2/5% CO2 is bubbled through in order to maintain the pH in the region of 7.4 and to supply the brain with oxygen during the perfusion.
The mice are perfused with the buffer containing the free M6G (compound 1: specific activity 84 mCi/mg) or the vectorized M6G (compound 2; specific activity 14.3 mCi/mg). Just before the start of the perfusion, the heart is stopped by sectioning the ventricles, in order to avoid reflux of the perfusate during the perfusion. The right hemisphere is then perfused at a rate of 10 ml/min for 60 seconds, after which time the mouse is decapitated. The amount of radioactivity in the right hemisphere is then measured and the brain penetration index (Kin) is calculated. […]

| Compound | effect on oxygen saturation (FIG. 5, B and C) [1] | oxygen level (SO2) [1] [%] | mortality (FIG. 5, C) ([1]; 10×ED50 dose, 60 min time point) | effect on O2 saturation (FIG. 5, A) [1] | Duration of the effect (Tail flick test; intravenous) [min] | ED50 (Tail flick test; intravenous) [µmol/kg] | Duration of the effect (Tail flick test; subcutaneous) [min] | ED50 (Tail flick test; subcutaneous) [µmol/kg] | Ki (μ1 receptor) [nM] | Ki (delta receptor) [nM] | analgesic activity compared with morphine [2] | Ki (μ2 receptor) [nM] | ED50 (Tail flick test; Mus musculus, sc, subcutaneous, read-out: ED50) [µmol/kg] | ED50 (Tail flick test; Mus musculus, intravenous, read-out: ED50) [µmol/kg] | increase in passage into the brain (Kin) versus free M6G (FIG. 4) [3] |
| --- | --- | --- | --- | --- | --- | --- | --- | --- | --- | --- | --- | --- | --- | --- | --- |
| CN1CC[C@]23c4c5ccc(O)c4O[C@H]2[C@@H](O[C@@H]2O[C@H](C(=O)O)[C@@H](O)[C@H](O)[C@H]2O)C=C[C@H]3[C@H]1C5 [Compound 1, morphine-6-glucuronide] | very significant decrease in the oxygen saturation | ~50 | caused the death of some animals | no effect | 90 | >5.7 | 150 | 6.6 | 2.67 | 23 | roughly the same analgesic activity | 5.82 | – | – | – |
| CN1CC[C@]23c4c5ccc(O)c4O[C@H]2[C@@H](O)C=C[C@H]3[C@H]1C5 [Compound 3, Morphine] | very significant decrease in the oxygen saturation | ~50 | – | small decrease in O2 saturation | 60 | – | 90 | – | – | – | – | – | 11.6 | 15.4 | – |
| CC(C)C[C@H](NC(=O)[C@H](CCCNC(=N)N)NC(=O)[C@H](CCCNC(=N)N)NC(=O)CCSSCCNC(=O)[C@H]1O[C@@H](O[C@H]2C=C[C@H]3[C@H]4Cc5ccc(O)c6c5[C@@]3(CCN4C)[C@H]2O6)[C@H](O)[C@@H](O)[C@@H]1O)C(=O)N[C@@H](CO)C(=O)N[C@@H](Cc1ccc(O)cc1)C(=O)N[C@@H](CO)C(=O)N[C@@H](CCCNC(=N)N)C(=O)N[C@@H](CCCNC(=N)N)C(=O)N[C@@H](CCCNC(=N)N)C(=O)N[C@@H](Cc1ccccc1)C(=O)O [Compound 2] ([Mpa](X1)RRLSYSRRRF-OH; C-terminus assumed) | no notable decrease | – | – | no effect | – | – | – | – | – | 19 | – | 0.6 | – | – | approximately 100 fold |
